{"source": "patent US9296687B2", "about": "“Modulators of HSP70/DnaK function and methods of use thereof” (The Trustees of the University of Pennsylvania, priority 2008, dated 2016)", "key": {"HSP70": {"target": "HSP70 (Homo sapiens, UniProt P0DMV8)", "sequence (P0DMV8 whole entry)": "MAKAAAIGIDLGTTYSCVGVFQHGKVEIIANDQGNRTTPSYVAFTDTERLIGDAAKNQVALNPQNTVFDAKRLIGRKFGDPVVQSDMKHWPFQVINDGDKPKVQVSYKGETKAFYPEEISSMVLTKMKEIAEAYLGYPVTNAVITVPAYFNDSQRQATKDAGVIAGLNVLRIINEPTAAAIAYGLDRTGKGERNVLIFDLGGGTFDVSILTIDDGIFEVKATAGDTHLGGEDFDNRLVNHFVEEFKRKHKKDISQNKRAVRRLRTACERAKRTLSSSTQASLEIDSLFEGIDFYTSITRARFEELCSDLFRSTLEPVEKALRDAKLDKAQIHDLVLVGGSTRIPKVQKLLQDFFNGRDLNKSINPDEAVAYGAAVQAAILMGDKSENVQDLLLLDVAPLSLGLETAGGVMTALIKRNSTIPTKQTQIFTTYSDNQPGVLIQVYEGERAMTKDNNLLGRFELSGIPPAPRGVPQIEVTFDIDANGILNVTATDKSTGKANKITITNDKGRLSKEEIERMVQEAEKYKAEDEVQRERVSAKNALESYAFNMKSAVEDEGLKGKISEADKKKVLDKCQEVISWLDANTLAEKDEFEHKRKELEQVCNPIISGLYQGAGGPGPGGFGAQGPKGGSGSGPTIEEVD", "experiment": "Competition of untagged PES with B-PES for HSP70", "format": "binding", "set-up": "endogenous in cells; host or cells: human tumor cell lines (A875, BX-U2OS, U2OS, H1299, MiaPaCa2, HepG2, SKBR3, 293T)", "procedure": "FIG. 15. Evidence supporting HSP70 as the cellular target of PES. (A) Competition studies in vivo support HSP70 as a PES target. H1299 cells were either pre-treated with DMSO or excess (25×) untagged PES for 1 h prior to the addition of 20 μM Biotin-PES (B-PES) for 5 h, and examined for the expression of proteins indicated (left). B-PES-containing complexes were captured by NeutrAvidin Resins, and immunoblotted using the indicated antibodies. […] (B) Competition studies in vitro support HSP70 as a PES target. Purified HSP70 protein was incubated with 0.25 mM B-PES in the absence and in the presence of 0.125 mM untagged PES."}, "MiaPaCa2 cells": {"tested_on": "MiaPaCa2 cells", "experiment": "Pulse-chase of newly synthesized proteins", "format": "cell-based, human", "conditions": "20 μM, 3 h chase", "procedure": "FIG. 13. Cycloheximide Reduces PES-Induced Cytoplasmic Vacuolization. (A) Representative phase-contrast images of indicated tumor cell lines pretreated with DMSO or 1 μg/ml of cycloheximide (CHX) for 1 h, followed by the addition of 20 μM PES for 23 h. (B) The molecular chaperone HSP70 has been implicated in promoting proper folding of nascent polypeptides. […] Briefly, MiaPaCa2 cells were incubated in methionine/cysteine starvation medium for 30 min before adding [^35S]methionine/cysteine and DMSO or [^35S]methionine/cysteine and 20 μM PES, as indicated, to pulse for 1 h. Following the pulse, cells were immediately chased by complete medium for 0, 0.5, or 3 h, either in the presence of DMSO or 20 μM PES, as indicated. Cells were harvested at indicated time points, lysed in 1% NP40-containing buffer, and fractionated into detergent-soluble and detergent-insoluble preparations.\nThe cells were seeded at ˜50% confluency in 10 ml of DMEM/10% FBS/1× Pen-Strep using 100 mm dish. Next day, the cells were washed extensively in PBS and starved in “methionine/cysteine-free DMEM” (Invitrogen SKU#21013-024) with 5% dialyzed FBS and 1× Pen/Strep for 30 min. Either [^35S] Methionine/Cysteine (500 μCi) and DMSO or [^35S] Methionine/Cysteine (500 μCi) and 20 μM PES were added to the cells for 1 h. The cells were washed extensively to remove [^35S] […]"}, "20S proteasome": {"tested_on": "20S proteasome", "experiment": "Cell-based 20S proteasome activity assay", "set-up": "species or system human", "conditions": "H1299 or A875 cells; PES 20 μM, 17-AAG 1 μM, CQ 5 μM"}, "DnaK": {"target": "DnaK (Escherichia coli, UniProt P0A6Y8)", "sequence (P0A6Y8 whole entry)": "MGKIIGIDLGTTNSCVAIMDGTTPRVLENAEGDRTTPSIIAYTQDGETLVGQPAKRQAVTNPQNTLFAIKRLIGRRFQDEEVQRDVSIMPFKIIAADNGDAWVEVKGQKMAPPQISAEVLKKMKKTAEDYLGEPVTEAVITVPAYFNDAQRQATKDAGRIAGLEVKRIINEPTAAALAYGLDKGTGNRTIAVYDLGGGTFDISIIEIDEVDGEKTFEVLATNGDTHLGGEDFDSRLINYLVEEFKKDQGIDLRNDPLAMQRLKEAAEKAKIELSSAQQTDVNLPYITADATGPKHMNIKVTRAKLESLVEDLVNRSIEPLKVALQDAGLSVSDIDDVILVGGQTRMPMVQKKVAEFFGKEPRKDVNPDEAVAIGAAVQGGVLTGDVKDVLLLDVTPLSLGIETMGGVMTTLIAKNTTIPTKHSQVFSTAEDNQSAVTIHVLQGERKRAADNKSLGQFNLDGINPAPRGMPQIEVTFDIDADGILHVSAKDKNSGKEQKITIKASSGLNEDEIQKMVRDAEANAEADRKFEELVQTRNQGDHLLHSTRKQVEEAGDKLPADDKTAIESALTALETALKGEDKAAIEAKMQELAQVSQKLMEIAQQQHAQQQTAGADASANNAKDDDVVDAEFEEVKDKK", "experiment": "Identification of B-PES interacting protein in bacteria by LC-tandem MS", "conditions": "E. coli DH5α, 50 μM B-PES, 3 h"}, "Scc61 cells": {"tested_on": "Scc61 cells", "experiment": "Colony formation assay with gamma radiation", "format": "cell-based, human", "conditions": "PES + 2 Gy", "procedure": "(§1) Fadu or Scc 61 (squamous cell carcinoma of the head and neck) cell lines were grown in DMEM supplemented with 10% fetal bovine serum and antibiotics. Cells were pre-treated with PES (10 μM) for 24 hr after which they were subject to gamma radiation (either 2 or 10 Gy) and plated at different densities in 6 well plates; the wells depicted were plated at 2000 cells/well. After 10 days, colonies were stained with crystal violet."}, "FADU cells": {"tested_on": "FADU cells", "experiment": "Colony formation assay with gamma radiation", "format": "cell-based, human", "conditions": "PES 10 μM + 10 Gy", "procedure": "as §1"}, "U2OS cells": {"tested_on": "U2OS cells", "experiment": "Long-lived protein degradation assay", "format": "cell-based, human", "conditions": "20 μM", "procedure": "The long-lived protein degradation assays were performed as described (Humbey et al., 2008; Pimkina et al., 2008), but with the following modifications. The cells were seeded at 30% confluency. The cells were then labeled at 37° C. for 14 h in L-valine-free medium supplemented with dialyzed FBS medium containing 0.2 mCi/ml of L-[^14C]valine (Amersham Pharmacia). After the radiolabeling period, unincorporated radioisotope was removed by three rinses with PBS (pH 7.4). Cells were then incubated at 37° C. in fresh complete media [Dulbecco's modified Eagle's medium (DMEM), 10% fetal bovine serum (FBS), 1% penicillin-streptomycin (PS)] containing 2 mM unlabeled valine for 10 h to allow the degradation of labeled short-lived proteins. Cells were then rinsed 3 times with PBS (pH 7.4), and grown in fresh complete media [DMEM, 10% FBS, 1% PS] containing either DMSO or 20 μM PES. Aliquots of the media (0.2 ml in duplicate) were taken at 0 h, 4 h, 8 h, 24 h, and 48 h and mixed with 0.2 ml of 1% bovine serum albumin and 0.4 ml of 40% trichloroacetic acid (v/v). […] Radioactivity in the aliquots was measured on a Beckman liquid scintillation system. The percentage of long-lived protein degraded was obtained by the formula % degradation=(^14C counts at timepoint/sum of ^14C counts at each time point+total cell-associated radioactivity)×100."}}, "data": [{"smiles": "NS(=O)(=O)C#Cc1ccccc1", "note": "[PES, 2-Phenylethynesulfonamide]", "values": [{"measurement": "binding of HSP70 to B-PES matrix with competitor", "setting": "HSP70; H1299 cells, excess (25×) untagged PES 1 h, then 20 μM B-PES 5 h", "value": "Binding of HSP70 to the matrix is reduced"}, {"measurement": "B-PES/HSP70 complex formation", "setting": "HSP70; purified HSP70, 0.25 mM B-PES, 0.125 mM untagged PES", "value": "reduces B-PES/HSP70 complex formation"}, {"measurement": "newly-synthesized proteins in the detergent-insoluble fraction", "setting": "MiaPaCa2 cells", "value": "increase in the newly-synthesized proteins in the detergent-insoluble fraction"}, {"measurement": "activity of the 20S proteasome", "setting": "20S proteasome", "value": "impairs the activity of the 20S proteasome"}, {"measurement": "interaction with DnaK", "setting": "DnaK", "value": "interacts with DnaK"}, {"measurement": "colony formation with radiation", "setting": "Scc61 cells", "value": "effectively diminished the capacity of these cells to form colonies"}, {"measurement": "colony formation with radiation", "setting": "FADU cells", "value": "combine effectively to reduce the capacity to form colonies"}, {"measurement": "basal degradation of long-lived proteins", "setting": "U2OS cells", "value": "significantly reduced"}]}]}
